Measured values as given in BindingDB's records for doi:10.1021/bi300261p (University of Colorado Boulder, 2012).
pKd: −log10 of the molar value.

biological target: T1, Pentachlorophenol 4-monooxygenase (Sphingobium chlorophenolicum, UniProt P42535); assay: Spectroscopic Assay
T1 sequence (P42535 whole entry): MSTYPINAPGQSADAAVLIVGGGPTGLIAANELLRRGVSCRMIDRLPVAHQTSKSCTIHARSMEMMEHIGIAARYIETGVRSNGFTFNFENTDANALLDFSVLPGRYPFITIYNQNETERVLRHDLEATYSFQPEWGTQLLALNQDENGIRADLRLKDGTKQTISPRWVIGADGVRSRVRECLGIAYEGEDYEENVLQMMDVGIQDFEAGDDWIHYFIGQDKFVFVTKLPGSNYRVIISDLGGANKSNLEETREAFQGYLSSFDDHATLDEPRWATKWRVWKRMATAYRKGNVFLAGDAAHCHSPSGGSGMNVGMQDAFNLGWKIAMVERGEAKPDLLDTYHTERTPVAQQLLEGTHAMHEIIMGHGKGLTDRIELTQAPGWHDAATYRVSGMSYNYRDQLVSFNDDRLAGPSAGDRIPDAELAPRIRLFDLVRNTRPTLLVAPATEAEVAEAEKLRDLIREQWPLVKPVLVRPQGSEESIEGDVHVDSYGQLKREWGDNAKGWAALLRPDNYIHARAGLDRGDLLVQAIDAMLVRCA
Method: Formation of the hydroxylated product and depletion of NADPH were measured following ethyl acetate extraction of the reaction mixture.

Row | SMILES | pKd
1 | Oc1c(Cl)c(Cl)cc(Cl)c1Cl [2,3,4,6-Tetrachlorophenol (TCP)] | 4.96
2 | Oc1cc(Cl)c(Cl)c(Cl)c1 [SMR001307309] | < 3.30
3 | Oc1c(Cl)c(Cl)c(O)c(Cl)c1Cl [Tetrachlorohydroquinone (TCHQ)] | 5.38
4 | Oc1c(Cl)cc(Cl)cc1Cl [2,4,6-Trichlorophenol (2,4,6-TriCP)] | 5.15
5 | Oc1ccccc1Cl [2-Chlorophenol (2-CP)] | < 3.00
6 | Oc1c(Cl)c(Cl)c(Cl)c(Cl)c1Cl [Pentachlorophenol (PCP)] | > 7.30
7 | Oc1c(Cl)cccc1Cl [2,6-Dichlorophenol] | 4.34
8 | Oc1cc(Cl)cc(Cl)c1 [3,5-Dichlorphenol (3,5-DCP)] | < 3.30
